Values of other authors in patent US20110189283A1, “APPETISING MEDICAMENTS FOR ORAL ADMINISTRATION IN SOLID FORM FOR PREVENTION AND/OR TREATMENT OF CARDIAC INSUFFICIENCY IN ANIMALS” (VIRBAC, priority 2008, published 2011).

Key:
[1] = test system: phosphodiesterase type III; details: after oral administration
[2] = administered during or shortly after feeding

effect of feeding on bioavailability [2]	dose administered found in the feces (dogs) [%]	dose administered found in the urine (dogs) [%]	time to state of equilibrium (multiple oral administrations) [days]	accumulation (multiple oral administrations of 2 mg per kg for 10 consecutive days)	effect of simultaneous taking of foods on bioavailability (oral)	absorption versus amount administered (oral administration of 2 to 4 mg/kg)	metabolism by the liver (to 7α-thiomethylspironolactone and canrenone, dogs)	Structure (SMILES)	duration of positive inotropic effects [1] [h]
considerably reduced								COc1ccc(-c2nc3ccc(C4=NNC(=O)CC4C)cc3[nH]2)cc1 (stereo not drawn) [pimobendan, 4,5-dihydro-6-[2-(4-methoxyphenyl)-1H-benzimidazol-5-yl]-5-methyl-3(2H)-pyridazinone]	8
	70	20	2	no accumulation is observed	considerably increases	increases linearly	rapidly and completely metabolized	CC(=O)S[C@@H]1CC2=CC(=O)CC[C@]2(C)[C@H]2CC[C@@]3(C)[C@@H](CC[C@@]34CCC(=O)O4)[C@H]12 [spironolactone]	
